One assay relates to Foxp3 Treg cells. In words: Treg activity under Th17 differentiation condition in in vitro allogenic model (mouse cells). It is filed as cell-based. As to conditions: 4 days, SD282 20 and 500 μM, FK506 1 and 5 nM, combination FK506 1, 5 nM + SD282 250 μM. The method, then: (§1) CD4+ T cells derived from a normal recipient (Balb/c, responder) (2×10^5 cells) were injected into each well of a 96-well round bottom plate, in vitro. Thereafter, for syngenic transplantation, normal recipient-derived T cell-removed splenocytes (2×10^5 cells), which had been irradiated with radiation, were added to each of the wells, followed by culturing under mixing. For allogenic transplantation, donor (C57BL/6, stimulator)-derived T cell-removed splenocytes were added to each of the wells, followed by culturing under mixing.
The allogenic models of Example 1-1 were treated with 20 and 500 μM of SD282 alone or 1 and 5 nM of FK506 alone. And, FK506 (1 and 5 nM) and SD282 (250 μM) were treated in combination, respectively. The isolated T cells were cultured for 4 days under the condition of Th17 cell differentiation so as to induce the differentiation to Th17 cells.

Assay [1] has as its system allogenic T cells (normal human PBMCs). Kind of assay: T cell proliferation in normal human PBMCs (MLR, CFSE). In kind it is cell-based. Details: T cell proliferation (FIG. 13a): dose or concentration left out as unconfirmed. The conditions noted are these: for proliferation of allogenic T cells (FIG. 13b): 4 days, FK506 1 and 5 nM, SD282 alone, combination FK506 1, 5 nM + SD282 250 μM. As for the experimental part: In order to evaluate the T cell proliferations according to the treatment with SD282 alone, FK506 alone, or in combination thereof in normal human PBMCs (peripheral blood mononuclear cells, PBMCs), mixed leukocyte reaction (MLR) and CFSE (carboxyfluorescein succinimidyl ester) staining were performed. An untreated syngenic group and an untreated allogenic group were used as controls. […] And, FK506 (1 and 5 nM) and SD282 (250 μM) were treated in combination, respectively. After the treatments, each group was cultured for 4 days and then alloresponses were evaluated by observing the T cell proliferations of the cultured cells, according to the 3H-thymidine incorporation method or the flow cytometry method.

The test system of assay [2] is PBMCs of a liver-transplanted patient. Kind of assay: Microarray / KEGG pathway and gene regulation in PBMCs of a liver-transplanted patient. In kind it is cell-based, human. The conditions noted are these: CD3 stimulation, 48 hours, SD282 250 μM. As for the experimental part: In order to investigate changes in the signal factors related to immune cell modulation according to drug treatments in the peripheral blood cells (PBMCs) of a liver-transplanted patient, the PBMCs were treated with 250 μM of SD282 alone, 5 nM of FK506 alone, and the combination thereof, under the condition of TCR stimulation (under the CD3 stimulation). After culturing for 48 hours, the microarray analyses thereof were carried out by Macrogen, Inc.

The subject of a further assay is allogenic T cells. Kind of assay: T cell proliferation in in vitro allogenic transplantation model (mouse cells). It is filed as cell-based. As to conditions: cultured 4 days; for T cell proliferation (3H-thymidine incorporation, FIG. 1): SD282 alone 250 μM or more, FK506 alone 1 and 5 nM, combination FK506 1 and 5 nM + SD282 250 μM; for T cell proliferation (flow cytometry, FIG. 2): SD282 alone, FK506 alone or combination. The method, then: as §1
In order to evaluate T cell proliferations according to the treatment with SD282 alone, FK506 alone or in combination thereof, the untreated syngenic group and the untreated allogenic group of Example 1-1 were used as controls. The allogenic model was treated with 50, 250 and 500 μM of SD282 alone or 1 and 5 nM of FK506 alone. And, FK506 (1 and 5 nM) and SD282 (250 μM) were treated in combination, respectively. After the treatments, each group was cultured for 4 days and then alloresponses were evaluated by observing the T cell proliferations of the cultured cells, according to the 3H-thymidine incorporation method, the CFSE assay method, or the flow cytometry method.
In addition, in order to evaluate the synergistic effect according to the treatment of SD282 and FK506 in combination, the Combination Index (CI) value (drug treatment) was calculated. The CI value was obtained by the following equation. A value of 1 or less means that there is a synergistic effect between the combination of two drugs, and a value of 1 or more means that there is an antagonistic effect between the combination of two drugs.
For orientation: Dividing cells build labelled thymidine or BrdU into new DNA.

For the next assay, the system named is IL-17, IFN-γ and TNF-α. Kind of assay: Inflammatory cytokines in normal human PBMCs under allo-response (ELISA). In kind it is cell-based. The conditions noted are these: allogenic, 4 days, compared to the group treated with FK506 alone. The method, then:
In order to evaluate the inhibitions against the activities of inflammatory cytokines according to the treatment with SD282 alone, FK506 alone, or in combination thereof in normal human peripheral blood cells (PBMCs), an untreated syngenic group and an untreated allogenic group were used as controls. Allogenic models were treated with 5, 250 and 500 μM of SD282 alone or 1 and 5 nM of FK506 alone. And, 1 and 5 nM of FK506 and 250 μM SD282 were treated in combination, respectively. After the treatments, each group was cultured for 4 days and then the inhibitory effects against IL-17, IFN-γ and TNF-α in the cultured cells was evaluated according to the ELISA method, so as to evaluate alloresponses.
A general note: In an ELISA, binding on a coated surface is turned into a signal by an enzyme label.

The next assay concerns pathogenic Th17 cells. In words: Inhibition of pathogenic Th17 cells / IL-17 in in vitro allogenic model (mouse cells). It is filed as cell-based. The conditions noted are these: 4 days, anti-CD3 0.1 μg/ml, SD282 50, 250, 500 μM, FK506 1, 5 nM, combination FK506 1, 5 nM + SD282 250 μM. The method, then:
as §1
The T cell response regulates the activity of Th17 (T helper 17 cell)/IL-17 (Interleukin 17) and IL-17 is classified as an inflammatory cytokine. […] We also evaluated inhibitory activity against inflammatory cytokines according to the treatments with SD282 and FK506 alone or in combination. The untreated syngenic group and the untreated allogenic group of Example 1-1 were used as controls. The allogenic models were treated with 50, 250 and 500 μM of SD282 alone or 1 and 5 nM of FK506 alone. And, FK506 (1 and 5 nM) and SD282 (250 μM) were treated in combination, respectively. After the treatments, each group was cultured for 4 days and then stimulated with anti-CD3 (0.1 μg/ml). The inhibitory efficacy against IL-17+CD4+ T cells and IL-17 was evaluated by analyzing the cultured Th17 cells according to the ELISA method; and the proliferation of Fox3+ Treg cells was evaluated through the analysis of Treg cells.

Each structure is given as a SMILES string.

`CCN(C(=N)NC(=N)N)c1ccc(F)cc1` [SD282]: the “proliferation of Treg cells (Foxp3, flow cytometry)” value (from here on “proliferation of Treg cells”) in the assay on Foxp3 Treg cells is recorded as “significantly increased”. In assay [1], the “proliferation of allogenic T cells (FIG. 13b)” value is “significantly inhibited”. Moreover, the “T cell proliferation (FIG. 13a)” value in assay [1] (4 days, or more of SD282 alone, compared to control group) is listed as “inhibited”. In assay [2], the “various pathways increased in a liver-transplanted patient (KEGG)” value was “inhibited”. Moreover, in the assay with allogenic T cells, the “T cell proliferation (3H-thymidine incorporation, FIG. 1)” value is given as “significantly inhibited” and the “T cell proliferation (flow cytometry, FIG. 2)” value is on record as “inhibited”. Besides, in the assay on IL-17, IFN-γ and TNF-α, the “activity of IFN-γ (ELISA)” value was “more significantly inhibited”, the “activity of IL-17 (ELISA)” value is “more significantly inhibited” and the “activity of TNF-α (ELISA)” value was “more significantly inhibited”. In the assay on pathogenic Th17 cells, the “IL-17+CD4+ T cells (%) / proliferation of pathogenic Th17 cells” value (“IL-17+CD4+ T cells (%) / proliferation” below) is reported as “inhibited” and the “activity of the inflammatory cytokine IL-17 (ELISA)” value is listed as “inhibited”.

`C=CC[C@@H]1/C=C(\C)C[C@H](C)C[C@H](OC)[C@H]2O[C@@](O)(C(=O)C(=O)N3CCCC[C@H]3C(=O)O[C@H](/C(C)=C/[C@@H]3CC[C@@H](O)[C@H](OC)C3)[C@H](C)[C@@H](O)CC1=O)[C@H](C)C[C@@H]2OC` [FK506, tacrolimus]: the “proliferation of Treg cells” value with Foxp3 Treg cells is on record as “did not increase”. Moreover, the “proliferation of Treg cells” value with Foxp3 Treg cells (listed as Fk506) was “significantly increased”. The “proliferation of allogenic T cells (FIG. 13b)” value in assay [1] was “not effective”. Also, in the assay on allogenic T cells, the “T cell proliferation (3H-thymidine incorporation, FIG. 1)” value is listed as “not effective” and the “T cell proliferation (flow cytometry, FIG. 2)” value was “inhibited”. In the assay with pathogenic Th17 cells, the “IL-17+CD4+ T cells (%) / proliferation” value is on record as “did not effectively inhibit” and the “activity of the inflammatory cytokine IL-17 (ELISA)” value is recorded as “did not effectively inhibit”. Besides, in the assay with pathogenic Th17 cells (listed as Fk506), the “IL-17+CD4+ T cells (%) / proliferation” value is “inhibited” and the “activity of the inflammatory cytokine IL-17 (ELISA)” value is given as “inhibited”.
